Measured values published in patent US20150031655A1, “COMBINATION OF LIVER X RECEPTOR MODULATOR AND ESTROGEN RECEPTOR MODULATOR FOR THE TREATMENT OF AGE-RELATED DISEASES” (UNIVERSITY OF NORTH DAKOTA, priority 2011, published 2015).

Experiments:
[1] = tested on: ARPE-19 cells; assay: ROS levels in ARPE-19 cells; format: cell-based; settings: ARPE-19, 24 h
[2] = biological target: T1, LXRα (Homo sapiens, UniProt Q13133); assay: Western blot of LXRα levels in the nucleus, SH-SY5Y cells; format: cell-based; settings: for LXRα protein levels in the nucleus: 24 h, treatment alone vs control; for 27-OHC-induced increase in LXRα in the nucleus: co-treatment with 10 μM 27-OHC
T1 construct: endogenous in cells; host or cells: SH-SY5Y human neuroblastoma cells
T1 sequence (Q13133 1-447): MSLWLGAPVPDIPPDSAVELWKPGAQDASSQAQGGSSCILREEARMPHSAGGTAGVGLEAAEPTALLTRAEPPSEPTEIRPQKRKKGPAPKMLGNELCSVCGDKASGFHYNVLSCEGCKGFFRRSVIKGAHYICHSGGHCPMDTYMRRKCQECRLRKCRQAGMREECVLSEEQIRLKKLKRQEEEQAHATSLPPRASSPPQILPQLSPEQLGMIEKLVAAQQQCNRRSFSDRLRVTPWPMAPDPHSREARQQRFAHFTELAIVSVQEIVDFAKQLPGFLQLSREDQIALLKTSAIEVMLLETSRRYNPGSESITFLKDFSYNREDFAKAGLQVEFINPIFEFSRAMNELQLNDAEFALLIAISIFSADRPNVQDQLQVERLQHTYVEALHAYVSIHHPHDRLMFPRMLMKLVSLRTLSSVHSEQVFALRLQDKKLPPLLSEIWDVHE
Method: (§1) Human neuroblastoma SH-SY5Y cells were grown in DMEM/F12 medium containing 10% fetal bovine serum (FBS) and 1% antibiotic/antimycotic mix. Cells were maintained at 37° C. in a saturated humidity atmosphere containing 95% air and 5% CO2.
Treated SH-SY5Y cells were washed with PBS and trypsinized to collect the cells and centrifuged at 5000 g. The pellet was washed again with PBS and homogenized in NE-PER tissue protein extraction reagent (Thermo Scientific, Rockford, Ill.) supplemented with protease and phosphatase inhibitors. Protein concentrations from the cytosolic and nuclear homogenates were determined with BCA protein assay.
Proteins (10 μg) were separated on SDS-PAGE gels, transferred to a polyvinylidene difluoride membrane (BioRad, Hercules, Calif.), and incubated with the following monoclonal antibodies: anti-TH mouse antibody (1:1000; Sigma Aldrich, Saint Louis, Mo.), anti-α-synuclein mouse antibody (1:500; Chemicon, Temecula, Calif.), anti-ERα rabbit antibody (1:500; Abcam, Cambridge, Mass.), anti-ERβ rabbit antibody (1:200; Upstate, Lake Placid, N.Y.), anti-LXRα rabbit antibody (1:500; Abcam, Cambridge, Mass.), anti-LXRβ mouse antibody (1:500; Abcam, Cambridge, Mass.).
β-actin and Lamin A were used as a gel loading control for cytosolic homogenates and nuclear homogenates respectively. The blots were developed with enhanced chemiluminescence (Immmun-star HRP chemiluminescent kit, Bio-Rad, Hercules, Calif.). Bands were visualized on a polyvinylidene difluoride membrane and analyzed by LabWorks 4.5 software on a UVP Bioimaging System (Upland, Calif.). Quantification of results was performed by densitometry and the results analyzed as total integrated densitometric values (arbitrary units).

[3] = biological target: T2, ERα (Homo sapiens, UniProt P03372); assay: Western blot of ERα levels in the nucleus (nuclear translocation), SH-SY5Y cells; format: cell-based; settings: 24 h, treatment alone vs control
T2 construct: endogenous in cells; host or cells: SH-SY5Y human neuroblastoma cells
T2 sequence (P03372 1-595): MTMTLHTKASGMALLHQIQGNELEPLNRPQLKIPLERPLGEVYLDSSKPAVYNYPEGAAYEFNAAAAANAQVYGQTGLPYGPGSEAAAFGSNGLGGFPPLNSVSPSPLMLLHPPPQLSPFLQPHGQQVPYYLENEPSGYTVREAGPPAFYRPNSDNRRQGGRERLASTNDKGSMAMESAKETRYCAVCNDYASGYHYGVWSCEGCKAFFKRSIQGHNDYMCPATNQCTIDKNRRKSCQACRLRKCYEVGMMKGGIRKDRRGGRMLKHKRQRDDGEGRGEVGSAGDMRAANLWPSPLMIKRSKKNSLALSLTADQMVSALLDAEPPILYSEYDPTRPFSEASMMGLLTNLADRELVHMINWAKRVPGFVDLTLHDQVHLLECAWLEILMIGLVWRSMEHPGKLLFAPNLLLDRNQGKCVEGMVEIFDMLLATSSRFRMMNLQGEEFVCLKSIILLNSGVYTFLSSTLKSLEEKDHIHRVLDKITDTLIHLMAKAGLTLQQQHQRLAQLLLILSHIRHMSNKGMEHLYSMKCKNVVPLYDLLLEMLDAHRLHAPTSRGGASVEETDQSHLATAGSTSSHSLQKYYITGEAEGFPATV
Method: as §1

[4] = tested on: TH promoter; assay: Dual-luciferase TH promoter assay; format: cell-based, human; settings: SH-SY5Y transfected with TH promoter-luciferase, 24 h
Method: Constructs encoding ERE and TH promoter conjugated to the firefly luciferase gene were used in the study. Human neuroblastoma SH-SY5Y cells were plated in 96-well plates at a density of 2×10^4 cells/well. The cells were transfected when 80% confluent with 0.25 μg of either ERE-firefly Luciferase reporter construct, LXRE-firefly Luciferase reporter construct, or TH promotor-firefly Luciferase promoter construct. Respective non-inducible reporter constructs containing constitutively expressing Renilla luciferase were used as negative internal controls. Constitutively expressing GFP constructs were used as positive control to determine transfection efficiency. Cells were incubated for 24 hours with Opti-MEM serum free medium (Invitrogen, Carlsbad, Calif.) containing the reporter constructs dissolved in transfection reagent. After 24 hours the medium was changed and the cells were incubated in normal DMEM/F12 medium containing 10% FBS and cells were treated with the different treatment regimens. The cells were treated in triplicate and harvested 24 hours later and subjected to dual-luciferases assay. The dual-luciferase assay was performed using a “Dual-Luciferase Reporter Assay System” from Promega (Madison, Wis.). The luminescence recorded is expressed as Relative Luminescence Units (RLU) and normalized to per mg protein. Unit value was assigned to control and the magnitude of differences among the samples is expressed relative to the unit value of control cells.

[5] = tested on: TH mRNA; assay: Real time RT-PCR of TH mRNA in SH-SY5Y cells; format: cell-based, human; settings: 24 h, treatment alone vs control
Method: as §1
Total RNA was isolated and extracted from treated cells using the 5 prime “PerfectPure RNA tissue kit” (5 Prime, Inc., Gaithersburg, Md.). RNA estimation was performed using “Quant-iT RNA Assay Kit” using a Qubit fluorometer according to the manufacturer's protocol (Invitrogen, Carlsbad, Calif.). cDNA was synthesized by reverse transcribing 1 μg of extracted RNA using an “iScript cDNA synthesis kit” (BioRad, Hercules, Calif.). The oligomeric primers (Sigma, St Louis, Mo.) used to amplify the TH mRNA and α-synuclein mRNA are enumerated in Table 1. The cDNA amplification was performed using an iQ SYBR Green Supermix kit following the manufacturer's instructions (BioRad, Hercules, Calif.). The amplification was performed using an iCycler iQ Multicolor Real Time PCR Detection System (BioRad, Hercules, Calif.). The expression of specific TH and α-synuclein transcripts amplified were normalized to the expression of glyceraldehyde-3-phosphate dehydrogenase (GAPDH).

[6] = tested on: LXRα/β; assay: EMSA, binding of LXRα/β to probe for the LXRE in the α-synuclein promoter; format: cell-based, human; settings: for binding of LXRα/β to the exogenous DNA sequence containing the LXRE: nuclear extracts of treated SH-SY5Y, treatment alone vs control

LXRα protein levels in the nucleus [2] | 27-OHC-induced increase in LXRα in the nucleus [2] | 27-OHC-induced increase in LXRα/β binding to the LXRE consensus motif ([6]; co-treatment with 27-OHC) | Structure (SMILES) | reactive oxygen species (ROS) levels ([1]; 10 μM, alone vs control) | nuclear translocation / nuclear levels of ERα [3] | reduction of TH promoter activity [4] | TH mRNA [5] | binding of LXRα/β to the exogenous DNA sequence containing the LXRE [6] | 27-OHC-induced increase in ROS levels ([1]; co-treatment with 27-OHC, all at 10 μM)
reduced | significantly attenuated | mitigates | CC(C)CCC[C@@H](C)[C@H]1CC[C@H]2[C@@H]3C[C@@H]4O[C@@]45C[C@@H](OS(=O)(=O)O)CC[C@]5(C)[C@H]3CC[C@]12C [ECHS, 5α,6α-epoxycholesterol-3-sulfate] |  |  |  |  | decreased | reduced
more pronounced increase | to the same extent |  | Cl.O=C(O)Cc1cccc(OCCCN(Cc2cccc(C(F)(F)F)c2Cl)CC(c2ccccc2)c2ccccc2)c1 [GW3965, 3-[3-[N-(2-Chloro-3-trifluoromethylbenzyl)-(2,2-diphenylethyl)amino]propyloxy]phenylacetic acid hydrochloride] |  |  |  |  |  | 

Structure (SMILES) | LXRα protein levels in the nucleus [2] | 27-OHC-induced increase in LXRα in the nucleus [2] | 27-OHC-induced increase in LXRα/β binding to the LXRE consensus motif ([6]; co-treatment with 27-OHC) | reactive oxygen species (ROS) levels ([1]; 10 μM, alone vs control) | nuclear translocation / nuclear levels of ERα [3] | reduction of TH promoter activity [4] | TH mRNA [5] | binding of LXRα/β to the exogenous DNA sequence containing the LXRE [6] | 27-OHC-induced increase in ROS levels ([1]; co-treatment with 27-OHC, all at 10 μM)
C[C@@H](CO)CCC[C@@H](C)[C@H]1CC[C@H]2[C@@H]3CC=C4C[C@@H](O)CC[C@]4(C)[C@H]3CC[C@]12C [27-OHC, 27-hydroxycholesterol] | increases |  |  | increases | decrease | ~4 fold | reduces | increases | 
